Source: patent US11352353B2, “Heterocyclic compound serving as FGFR4 inhibitor” (Hangzhou Innogate Pharma Co., Ltd., priority 2016, dated 2022)

Assays:
FGFR4 = FGFR4 (Homo sapiens, UniProt P22455); test: FGFR4 kinase activity inhibition (Caliper mobility shift assay); type: biochemical; settings: FAM-labeled peptide and ATP, 28° C. 30-60 minutes, read-out: FGFR kinase inhibition (IC50, nM) FGFR4
Protocol: (§1) 1. FGFR1 and FGFR4 Kinase Activity Inhibition Experiments
(§2) The FGFR1, FGFR2, FGFR3 and FGFR4 protein kinase activities were determined using the Caliper mobility shift assay. The compound was dissolved in DMSO and diluted with kinase buffer, and 5 µL of a 5-fold final concentration of the compound (10% DMSO) was added to a 384-well plate. After adding 10 µL of 2.5-fold enzyme (FGFR1 and FGFR4, respectively) solution, incubate for 10 minutes at room temperature, and then add 10 µL of a (FAM-labeled peptide and ATP) solution. Incubate at 28° C. for 30-60 minutes and stop the reaction by adding 25 µL stop solution. Conversion rate data was read on a Caliper EZ Reader II (Caliper Life Sciences). The conversion rate was converted into inhibition rate data (% inhibition rate=(max−sample conversion rate)/(max−min)*100). Wherein max is the conversion of the DMSO control and min is the conversion of the enzyme-free control. Plot the curve with the compound concentration and inhibition rate on the horizontal and vertical coordinates, and fit the curve and calculate the IC50 using XLFit excel add-in version 4.3.1 software.

Huh7 tumor cells = test: Inhibition of Huh-7 tumor cell proliferation (CellTiter Glo); type: cell-based; settings: Homo sapiens, 72 or 168 hours
Protocol: 2. Compound Inhibition Test on Huh-7 Tumor Cell Proliferation
The Huh7 cell suspension was adjusted to 5×10e4/mL or 2×10e4/mL with DMEM+2 Mm Glutamine+10% FBS medium. A 100 μL cell suspension was added to each well in a 96-well cell culture plate at a final cell concentration of 5000 cells/well (72 hours) or 2000 cells/well (168 hours). The test compound was dissolved in DMSO as a 10 mM stock solution. Compounds at a final concentration of 200× were prepared using stock solutions and DMSO, and 3× serial dilutions were prepared and then diluted 20-fold with each medium. Finally, 10 μL of the corresponding 10-fold solution was added to each well of each cell, and each drug concentration was single-well. The final concentrations of each compound were 3000 nM, 1000 nM, 333.3 nM, 111.1 nM, 37.04 nM, 12.35 nM, 4.12 nM, 1.37 nM, and the final concentration of DMSO per well was 0.5%. Incubate for 72 or 168 hours in a 37° C., 5% CO2 incubator. After 72 or 168 hours of drug treatment, according to the CTG instructions, add 100 µL CellTiter Glo detection reagent per well, pre-melt and equilibrate to room temperature CTG solution, mix with a microplate shaker for 2 minutes, and leave at room temperature for 10 minutes. The chemiluminescence signal value was then measured using an EnSpire plate reader. Cell survival rate was calculated using formula: (Vsample−Vblank)/(Vvehicle control−Vblank)×100%. Vsample is the reading of the drug treatment group, Vvehicle control is the average value of the solvent control group, and Vblank is the average value of the blank control well. The S-type dose-survival curve was plotted and the IC50 values were calculated using the GraphPad Prism 5.0 software using a non-linear regression model.

FGFR1 = FGFR1 (Homo sapiens, UniProt P11362); test: FGFR1 kinase activity inhibition (Caliper mobility shift assay); type: biochemical; settings: FAM-labeled peptide and ATP, 28° C. 30-60 minutes, read-out: FGFR kinase inhibition (IC50, nM) FGFR1
Protocol: as §1, §2

FGFR4, sequence (P22455 22-802): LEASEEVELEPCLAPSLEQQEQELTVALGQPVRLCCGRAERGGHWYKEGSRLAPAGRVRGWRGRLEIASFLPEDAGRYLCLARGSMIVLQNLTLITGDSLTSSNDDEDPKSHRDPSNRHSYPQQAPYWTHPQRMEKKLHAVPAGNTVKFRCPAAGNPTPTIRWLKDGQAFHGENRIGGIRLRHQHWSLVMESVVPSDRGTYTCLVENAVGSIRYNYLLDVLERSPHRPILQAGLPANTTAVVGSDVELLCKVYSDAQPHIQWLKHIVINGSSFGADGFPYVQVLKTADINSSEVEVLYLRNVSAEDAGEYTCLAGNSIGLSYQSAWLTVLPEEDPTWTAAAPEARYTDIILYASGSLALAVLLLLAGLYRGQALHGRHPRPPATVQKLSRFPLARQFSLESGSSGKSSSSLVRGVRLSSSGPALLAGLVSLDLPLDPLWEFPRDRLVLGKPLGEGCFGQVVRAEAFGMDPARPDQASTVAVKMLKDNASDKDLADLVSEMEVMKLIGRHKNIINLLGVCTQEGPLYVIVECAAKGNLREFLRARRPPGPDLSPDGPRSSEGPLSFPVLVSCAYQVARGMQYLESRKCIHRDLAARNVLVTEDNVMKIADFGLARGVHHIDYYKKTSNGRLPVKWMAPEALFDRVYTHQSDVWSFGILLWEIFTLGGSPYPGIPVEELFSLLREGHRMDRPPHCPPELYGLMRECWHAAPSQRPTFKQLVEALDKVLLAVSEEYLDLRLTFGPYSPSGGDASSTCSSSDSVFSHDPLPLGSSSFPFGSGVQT
FGFR1, sequence (P11362 22-822): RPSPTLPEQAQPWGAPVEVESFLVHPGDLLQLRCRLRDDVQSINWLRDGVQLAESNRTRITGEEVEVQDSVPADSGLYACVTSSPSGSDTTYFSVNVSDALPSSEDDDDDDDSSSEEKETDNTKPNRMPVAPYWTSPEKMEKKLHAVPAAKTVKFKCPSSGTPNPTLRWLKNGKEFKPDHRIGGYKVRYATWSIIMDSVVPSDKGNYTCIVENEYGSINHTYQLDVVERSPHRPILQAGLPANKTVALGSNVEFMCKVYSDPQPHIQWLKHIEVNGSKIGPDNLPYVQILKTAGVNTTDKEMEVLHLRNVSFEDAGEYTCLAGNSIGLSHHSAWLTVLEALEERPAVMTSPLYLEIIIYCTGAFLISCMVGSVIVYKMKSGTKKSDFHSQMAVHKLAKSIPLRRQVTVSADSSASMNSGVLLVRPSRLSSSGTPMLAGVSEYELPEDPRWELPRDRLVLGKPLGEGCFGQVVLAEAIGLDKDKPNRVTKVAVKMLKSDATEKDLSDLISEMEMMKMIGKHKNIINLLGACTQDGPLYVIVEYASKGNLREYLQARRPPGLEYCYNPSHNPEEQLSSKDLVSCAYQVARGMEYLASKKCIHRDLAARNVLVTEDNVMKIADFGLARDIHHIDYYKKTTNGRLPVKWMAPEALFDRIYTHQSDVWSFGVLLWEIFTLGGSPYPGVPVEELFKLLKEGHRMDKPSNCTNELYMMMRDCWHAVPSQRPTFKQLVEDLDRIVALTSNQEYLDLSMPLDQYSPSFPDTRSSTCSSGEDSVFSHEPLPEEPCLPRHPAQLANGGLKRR

IC50 (FGFR4) [nM]	IC50 (Huh7 tumor cells) [µM]	IC50 (FGFR1) [nM]	SMILES
< 20	< 0.5	–	N#Cc1cnc(NC(=O)N2CCCc3cc(CN4CCN(C5CC5)CC4=O)c(C=O)nc32)cc1OC1CC1 [Compound 4]
–	< 0.5	–	N#Cc1cnc(NC(=O)N2CCCc3cc(CN4CC5CCCN5CC4=O)c(C=O)nc32)cc1OC1CC1 (stereo not drawn) [Compound 6]
–	< 0.05	–	CO[C@H]1CC[C@@H](Nc2cc(NC(=O)N3CCCc4cc(CN5CCN(C)CC5=O)c(C=O)nc43)ncc2C#N)CC1 [Compound 3]
< 5	–	–	COCCNc1cc(NC(=O)N2CCCc3cc(CN4CCN5CCCC5C4=O)c(C=O)nc32)ncc1C#N (stereo not drawn) [Compound 10]
< 5	–	–	COCCNc1cc(NC(=O)N2CCCc3cc(CN4CCCN(C)CC4=O)c(C=O)nc32)ncc1C#N [Compound 9]
–	< 0.05	> 10000	CN1CCN(Cc2cc3c(nc2C=O)N(C(=O)Nc2cc(OC4CC4)c(C#N)cn2)CCC3)C(=O)C1 [Compound 1]
< 5	–	–	COC1CC(Nc2cc(NC(=O)N3CCCc4cc(CN5CCN(C)CC5=O)c(C=O)nc43)ncc2C#N)C1 (stereo not drawn) [Compound 8]
< 5	–	–	COCCNc1cc(NC(=O)N2CCCc3cc(CN4CCN(C5CN(C)C5)CC4=O)c(C=O)nc32)ncc1C#N [Compound 11]
< 5	–	–	CN1CCN(Cc2cc3c(nc2C=O)N(C(=O)Nc2cc(NC4CC4)c(C#N)cn2)CCC3)C(=O)C1 [Compound 12]
–	< 0.05	–	CN1CCCN(Cc2cc3c(nc2C=O)N(C(=O)Nc2cc(OC4CC4)c(C#N)cn2)CCC3)C(=O)C1 [Compound 5]
–	< 0.5	–	COCC1(Oc2cc(NC(=O)N3CCCc4cc(CN5CCN(C)CC5=O)c(C=O)nc43)ncc2C#N)CC1 [Compound 7]
–	< 0.05	> 10000	COC1CCC(Oc2cc(NC(=O)N3CCCc4cc(CN5CCN(C)CC5=O)c(C=O)nc43)ncc2C#N)CC1 (stereo not drawn) [Compound 2]
